Test results: ChEMBL document CHEMBL1201862, “PubChem BioAssay data set” (2004)
The source made the active and inactive calls.

Legend:
[1] = molecular target: DNA dC->dU-editing enzyme APOBEC-3G (Homo sapiens, UniProt Q9HC16); assay: inhibition of APOBEC3G ssDNA deamination – biochemical, fluorescence, single-stranded DNA substrate, SAR follow-up (AID 602136); type: functional; conditions: read-out: IC50_Mean
[2] = molecular target: DNA dC->dU-editing enzyme APOBEC-3A (Homo sapiens, UniProt P31941); assay: SAR analysis of small molecule inhibitors of APOBEC3A DNA Deaminase via a fluorescence-based single-stranded DNA deaminase assay.; type: functional; conditions: read-out: IC50_Mean
Sequence of DNA dC->dU-editing enzyme APOBEC-3A (P31941 whole entry): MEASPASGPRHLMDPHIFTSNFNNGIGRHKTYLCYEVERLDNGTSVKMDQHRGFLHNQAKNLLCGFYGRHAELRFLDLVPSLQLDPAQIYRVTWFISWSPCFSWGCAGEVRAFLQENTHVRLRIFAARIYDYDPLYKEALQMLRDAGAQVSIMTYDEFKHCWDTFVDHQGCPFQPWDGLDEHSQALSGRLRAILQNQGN

[3] = Vero cell cytotoxicity, dose response, cytotoxicity control for M. tuberculosis growth inhibitor project, Vero cells, purified and synthesized compounds, set 4 (AID 504854); type: functional; conditions: Mycobacterium tuberculosis
[4] = THP-1 cell cytotoxicity, dose response, cytotoxicity control, set 3 (AID 504852); type: functional; conditions: Mycobacterium tuberculosis
[5] = fluconazole-exposed Candida albicans growth modulators – fluorescence, retest, confirmation (AID 2467); type: functional, cell-based
[6] = NIH-3T3 fibroblast cytotoxicity, dose response, cytotoxicity control, cell-based, fluorescence, Alamar Blue, secondary assay (AID 2327); type: functional;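 also: NIH-3T3 mouse fibroblasts cultured with fluconazole at 8 µg/mL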
[7] = Trypanosoma cruzi growth suppression in host cells – NIH3T3 host cells, beta-gal luminescence, confirmation (AID 2044); type: functional, cell-based;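 also: intracellular parasites grown in NIH/3T3 mouse fibroblasts as host cells; luminescent beta-galactosidase reporter signal from transgenic T. cruzi replicating inside host cells; inhibitors lower the luminescence signal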
[8] = molecular target: Serine/threonine-protein phosphatase (Homo sapiens, UniProt Q9BPW0); assay: Counterscreen for inhibitors of PP1: fluorescence-based biochemical high throughput dose response assay to identify inhibitors of Protein Phosphatase 5 (PP5). [Related pubchem assays: 2034 (Summary (PP5 inhibitors)), 1987 (PP5 inhibitors in singlate), 2235 (PP1 inhibitors in singlate)]
Sequence of Serine/threonine-protein phosphatase (Q9BPW0 whole entry): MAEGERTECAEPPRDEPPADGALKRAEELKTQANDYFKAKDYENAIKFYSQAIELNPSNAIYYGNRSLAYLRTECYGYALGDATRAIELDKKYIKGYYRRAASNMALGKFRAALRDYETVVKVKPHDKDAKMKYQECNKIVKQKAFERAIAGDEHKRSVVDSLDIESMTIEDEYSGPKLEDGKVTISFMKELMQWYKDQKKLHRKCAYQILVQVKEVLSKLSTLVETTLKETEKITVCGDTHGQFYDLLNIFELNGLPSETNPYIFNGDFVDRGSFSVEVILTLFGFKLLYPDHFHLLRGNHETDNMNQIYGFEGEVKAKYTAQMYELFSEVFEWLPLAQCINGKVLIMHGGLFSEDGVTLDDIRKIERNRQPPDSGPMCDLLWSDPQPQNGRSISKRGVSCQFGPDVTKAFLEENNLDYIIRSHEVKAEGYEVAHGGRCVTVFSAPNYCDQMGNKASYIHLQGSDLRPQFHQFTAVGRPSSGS

INS1 = assay: INS-1E survival protection against cytokine death – cell-based, luminescence, retest, dose response (AID 449756); type: functional; conditions: Rattus norvegicus;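 also: cell death triggered by IL-1 beta plus TNF-alpha plus IFN-gamma mixture; protective hits raise ATP signal compared with cytokine alone wells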
[9] = molecular target: Latent membrane protein 1 (Human herpesvirus 4 (strain B95-8), UniProt P03230); assay: LMP1 TES1 pathway selectivity over dsRED control – imaging, HEK293T, dual-color eGFP/dsRED, cherry-picks, selectivity assay for LMP1 NF-kB inhibitor project, dose response (AID 588398); type: functional, cell-based
Sequence of Latent membrane protein 1 (P03230 whole entry): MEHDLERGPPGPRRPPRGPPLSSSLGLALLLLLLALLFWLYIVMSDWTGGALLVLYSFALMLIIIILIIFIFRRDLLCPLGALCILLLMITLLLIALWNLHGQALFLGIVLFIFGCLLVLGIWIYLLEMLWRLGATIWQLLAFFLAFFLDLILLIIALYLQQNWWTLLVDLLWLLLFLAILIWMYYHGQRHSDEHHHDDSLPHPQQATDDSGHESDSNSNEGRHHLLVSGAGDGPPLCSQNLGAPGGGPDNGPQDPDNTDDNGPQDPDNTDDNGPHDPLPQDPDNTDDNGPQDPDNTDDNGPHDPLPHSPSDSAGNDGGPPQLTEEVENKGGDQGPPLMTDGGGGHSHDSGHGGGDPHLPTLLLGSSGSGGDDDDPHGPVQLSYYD

[10] = NIH3T3 cell viability loss – ATP luminescence, mouse fibroblasts, counter-screen, dose response (AID 2010); type: functional, cell-based;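 also: cells exposed to compound for about 90 hours before reading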
[11] = molecular target: Photoreceptor-specific nuclear receptor (Homo sapiens, UniProt Q9Y5X4); type: functional, cell-based;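 also: CHO-S cells with Gal4-NCOR and VP16-NR2E3 two-hybrid luciferase reporter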
Sequence of Photoreceptor-specific nuclear receptor (Q9Y5X4 whole entry, the tested form may be a part): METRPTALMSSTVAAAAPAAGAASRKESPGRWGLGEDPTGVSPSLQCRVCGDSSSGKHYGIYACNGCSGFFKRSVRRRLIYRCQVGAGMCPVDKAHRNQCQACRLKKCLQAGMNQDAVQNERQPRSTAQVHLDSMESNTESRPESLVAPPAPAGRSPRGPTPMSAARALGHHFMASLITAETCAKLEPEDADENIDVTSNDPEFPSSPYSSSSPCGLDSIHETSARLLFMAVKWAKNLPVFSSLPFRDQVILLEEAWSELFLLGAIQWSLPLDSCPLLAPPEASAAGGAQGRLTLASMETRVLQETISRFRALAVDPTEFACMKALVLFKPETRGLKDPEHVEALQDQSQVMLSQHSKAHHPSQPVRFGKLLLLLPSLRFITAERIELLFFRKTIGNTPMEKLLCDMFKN

HEK293 = assay: EBV LMP1 TES2 canonical NF-kB signalling blockers – cell-based, HEK293, luciferase, cherry-pick, dose response (AID 588343); type: functional; conditions: Homo sapiens
[12] = molecular target: Serine/threonine-protein phosphatase PP1-alpha catalytic subunit (Homo sapiens, UniProt P62136); assay: inhibition of protein phosphatase 1 activity – biochemical, fluorescence, dose response (AID 2403);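 also: phosphatase turnover of OMFP into fluorescent 3-O-methylfluorescein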
Sequence of Serine/threonine-protein phosphatase PP1-alpha catalytic subunit (P62136 whole entry): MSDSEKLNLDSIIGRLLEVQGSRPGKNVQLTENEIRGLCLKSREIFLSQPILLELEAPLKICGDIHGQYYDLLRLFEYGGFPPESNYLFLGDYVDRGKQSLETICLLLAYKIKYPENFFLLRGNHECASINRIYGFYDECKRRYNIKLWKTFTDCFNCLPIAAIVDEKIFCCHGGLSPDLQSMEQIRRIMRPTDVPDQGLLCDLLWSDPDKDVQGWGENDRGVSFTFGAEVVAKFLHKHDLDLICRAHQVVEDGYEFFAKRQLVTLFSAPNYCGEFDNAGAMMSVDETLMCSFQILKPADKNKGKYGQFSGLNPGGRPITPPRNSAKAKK

[13] = molecular target: T1, Orexin/Hypocretin receptor type 1 (Homo sapiens, UniProt O43613); assay: Homogeneous Time Resolved Fluorescence (HTRF)-based cell-based high throughput dose response assay for antagonists of the orexin 1 receptor (OX1R; HCRTR1). [Related pubchem assays (depositor defined):AID434989, AID435008, AID463079, AID485270, AID492963, AID492964, AID492965, AID493232, AID504717, AID504718]; type: functional
T1 sequence (O43613 whole entry): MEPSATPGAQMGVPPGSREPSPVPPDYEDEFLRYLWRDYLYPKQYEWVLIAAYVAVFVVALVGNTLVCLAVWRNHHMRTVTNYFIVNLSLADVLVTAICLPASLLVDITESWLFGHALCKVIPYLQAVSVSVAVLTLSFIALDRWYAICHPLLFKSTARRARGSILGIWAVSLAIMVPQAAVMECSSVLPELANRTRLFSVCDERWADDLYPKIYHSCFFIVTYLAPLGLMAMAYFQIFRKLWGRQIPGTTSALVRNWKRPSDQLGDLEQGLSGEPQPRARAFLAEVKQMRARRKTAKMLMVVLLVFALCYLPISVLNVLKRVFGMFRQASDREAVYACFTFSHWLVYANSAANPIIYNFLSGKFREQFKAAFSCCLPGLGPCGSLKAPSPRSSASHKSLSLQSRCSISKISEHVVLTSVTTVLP

Orexin receptor type 2 [14] = molecular target: T2, Orexin receptor type 2 (Homo sapiens, UniProt O43614); assay: Counterscreen assay for antagonists of the orexin 1 receptor (OX1R; HCRTR1): Fluorescence-based cell-based dose response assay for antagonists of the orexin 2 receptor (OX2R; HCRTR2), run by assay provider.; type: functional
T2 sequence (O43614 whole entry): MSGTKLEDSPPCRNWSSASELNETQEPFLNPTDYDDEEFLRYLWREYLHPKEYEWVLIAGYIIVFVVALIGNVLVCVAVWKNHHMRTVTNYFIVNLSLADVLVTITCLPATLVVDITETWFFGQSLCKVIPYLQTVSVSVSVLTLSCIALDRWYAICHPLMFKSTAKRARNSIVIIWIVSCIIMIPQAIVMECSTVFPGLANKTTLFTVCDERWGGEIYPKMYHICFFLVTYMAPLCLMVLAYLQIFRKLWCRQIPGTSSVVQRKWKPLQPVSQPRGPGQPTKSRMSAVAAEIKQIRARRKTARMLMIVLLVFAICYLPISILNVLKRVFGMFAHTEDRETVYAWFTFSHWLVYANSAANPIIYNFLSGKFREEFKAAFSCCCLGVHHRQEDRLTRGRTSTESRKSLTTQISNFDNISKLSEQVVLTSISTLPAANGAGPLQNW

Orexin receptor type 2 [15] = molecular target: T2, Orexin receptor type 2; assay: Counterscreen assay for antagonists of the orexin 1 receptor (OX1R; HCRTR1): Homogeneous Time Resolved Fluorescence (HTRF)-based cell-based dose response assay for antagonists of the orexin 2 receptor (OX2R; HCRTR2), run by assay provider.; type: functional
[16] = molecular target: T1, Orexin/Hypocretin receptor type 1; assay: Fluorescence-based cell-based high throughput dose response assay for antagonists of the orexin 1 receptor (OX1R; HCRTR1). [Related pubchem assays (depositor defined):AID434989, AID435008, AID463079, AID485270, AID492963, AID492964, AID492965, AID493232, AID504717, AID504718]; type: functional
CHO-K1 = assay: (§1) Counterscreen for antagonists of the orexin 1 receptor (OX1R; HCRTR1): Homogeneous time resolved fluorescence (HTRF)-based cell-based dose response assay to identify antagonists of the parental CHO-K1 cell line. [Related pubchem assays (depositor defined):AID434989, AID435008, AID463079, AID485270, AID492963, AID492964, AID492965, AID493232, AID504699, AID504701]; type: functional; conditions: Cricetulus griseus
[17] = as §1, with “Fluorescence-based” for “Homogeneous time resolved fluorescence (HTRF)-based”, “cell-based high throughput” for “cell-based”, “CHO” for “CHO-K1”; type: functional

Sequence of DNA dC->dU-editing enzyme APOBEC-3G (Q9HC16 whole entry): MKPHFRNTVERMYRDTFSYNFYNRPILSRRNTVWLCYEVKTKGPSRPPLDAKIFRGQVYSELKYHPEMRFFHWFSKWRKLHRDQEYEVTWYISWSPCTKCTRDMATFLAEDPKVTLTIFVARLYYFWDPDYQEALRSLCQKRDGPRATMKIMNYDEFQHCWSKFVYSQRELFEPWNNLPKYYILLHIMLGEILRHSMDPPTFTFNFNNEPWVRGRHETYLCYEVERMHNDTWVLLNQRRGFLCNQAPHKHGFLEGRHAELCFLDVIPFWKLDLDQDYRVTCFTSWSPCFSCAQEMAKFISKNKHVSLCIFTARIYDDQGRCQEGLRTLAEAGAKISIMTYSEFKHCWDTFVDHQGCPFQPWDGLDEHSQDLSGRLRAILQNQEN

CCOC(=O)CC(c1ccc(N)cc1)n1c(C)ccc1C (stereo not given)
IC50 [1]: > 99 µM (inactive) | IC50 [2]: > 99 µM (inactive)

CC1CCN(C(=O)CSc2nc(O)c3ccccc3n2)CC1
CC50 [3]: > 100 µM (active) | CC50 [4]: > 100 µM (active)

COc1cnc(-c2ccccn2)nc1Sc1ccccc1Cl
EC50 [5]: > 38 µM (not active) | EC50 [6]: > 150 µM (inconclusive) | EC50 [7]: 2.36 µM (active) | IC50 [8]: 59.1 µM (not active) | AC50 (INS1): 7.29 µM (active) | AC50 [9]: 15.4 µM (active) | EC50 [10]: > 60 µM (not active) | IC50 [11]: 4.25 µM (active) | AC50 (HEK293): 112 µM (active) | IC50 [12]: 7.8 µM (active)

Cc1cc(Cl)ccc1OCCCC(=O)NCCN1C(=O)S/C(=C\c2cccnc2)C1=O
IC50 [13]: 0.264 µM (active) | IC50 (Orexin receptor type 2 [14]): 17.5 µM (inactive) | IC50 (Orexin receptor type 2 [15]): > 50 µM (inactive) | IC50 [16]: 1.13 µM (active) | IC50 (CHO-K1): > 66.2 µM (inactive) | IC50 [17]: 21.1 µM (inactive)
